The values that follow are results of earlier work, collected in patent US12128066B2, “Product for treating skin fungus and its micronized preparation method” (priority 2021, dated 2024).

The conditions of this series: in water or organic solvents.

On to `S=[Se]=S` [Selenium disulfide], for which the Solubility entry was “almost insoluble”.
